Consider one molecule from patent US9115159B2, “Phosphate compounds, a process for their preparation and pharmaceutical compositions containing them” (LES LABORATOIRES SERVIER, priority 2013, dated 2015).

In data set [1] the test system is caspase 3. In words: Induction of caspase activity in vivo (DEVDase activity in tumour lysates, RS4;11 xenograft). Further details: species or system mice (SCID strain). The conditions noted are these: 100 mg/kg p.o., 16 hours after treatment, RS4;11 tumour lysates, treated mice / control mice. Here is the method: The ability of the compounds of formula (I′) to activate caspase 3 is evaluated in a xenograft model of RS4;11 leukaemia cells.
1×10^7 RS4;11 cells are grafted sub-cutaneously into immunosuppressed mice (SCID strain). 25 to 30 days after the graft, the animals are treated orally with the various compounds. Sixteen hours after treatment, the tumour masses are recovered and lysed, and the caspase 3 activity is measured in the tumour lysates.
This enzymatic measurement is carried out by assaying the appearance of a fluorigenic cleavage product (DEVDase activity, Promega). It is expressed in the form of an activation factor corresponding to the ratio between the two caspase activities: the activity for the treated mice divided by the activity for the control mice.
N-(4-Hydroxyphenyl)-3-{6-[((3S)-3-(4-morpholinylmethyl)-3,4-dihydro-2(1H)-isoquinolinyl)carbonyl]-1,3-benzodioxol-5-yl}-N-phenyl-5,6,7,8-tetrahydro-1-indolizine carboxamide (also referred to as the drug from Example 1) was tested. At a dose of 100 mg/kg p.o., the in vivo caspase activation factor is 29.3.

A short description of data set [2]: Pharmacokinetic profile / in vivo conversion after oral administration to SCID mice (plasma, LC-MS/MS). The arrangement: species or system female SCID mice. The conditions noted are these: female, mouse, po; for Cmax: read-out: Cmax, compound measured: Drug from Example 1; for AUC(0-t): read-out: AUCt, compound measured: Drug from Example 1; for Tmax: read-out: Tmax, compound measured: Drug from Example 1. Summed up: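 Female SCID mice were gavaged with phosphate prodrug in EtOH/PEG300/water (10/40/50) at 3 or 25 mg/kg, or in aqueous media (1 mM Na2CO3, water, or 1M Na2CO3) at 3–100 mg/kg. Plasma prodrug and hydroxylated drug were measured by TFC-LC-MS/MS over 0.25–24 h. Non-compartmental analysis used mean concentrations.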

The nature of data set [3]: Solubility in aqueous medium buffered to physiological pH (phosphate 0.33M, pH 7.4). The format is physicochemical. The conditions noted are these: phosphate 0.33M, pH = 7.4. Here is the method:
(§1) The solubilities of the compounds were also measured in a medium buffered to physiological pH (cf. Table 3).

Data set [4] is described as follows: Solubility in water. The format is physicochemical. Here is the method: The solubility of compounds of formula (I) in water was measured and compared with that of compounds of formula (I′).
More specifically, 4-[{[3-(6-{[(3S)-3-(morpholin-4-ylmethyl)-3,4-dihydroisoquinolin-2(1H)-yl]carbonyl}-1,3-benzodioxol-5-yl)-5,6,7,8-tetrahydroindolizin-1-yl]carbonyl}-(phenyl)amino]phenyl disodium phosphate (also referred to as the compound of Example 1) was tested and compared to N-(4-hydroxyphenyl)-3-{6-[((3S)-3-(4-morpholinylmethyl)-3,4-dihydro-2(1H)-isoquinolinyl)carbonyl]-1,3-benzodioxol-5-yl}-N-phenyl-5,6,7,8-tetrahydro-1-indolizine carboxamide (also referred to as the drug from Example 1).
as §1

[5] abbreviates: Drug from Example 1 administered 3 mg/kg p.o., lipid formulation.
[6] abbreviates: Drug from Example 1 administered 25 mg/kg p.o., lipid formulation.
[7] abbreviates: Drug from Example 1 administered 30 mg/kg p.o., lipid formulation.
Where [8] appears, read: Drug from Example 1 administered 100 mg/kg p.o., lipid formulation.

Values joined by “and” are separate entries in the source; they are usually repeats but may differ in a detail not shown here. Equal values may be shown once. Read-outs that look alike come from different tables or passages of the source.

The Cmax is the peak of the concentration-time curve. As usually defined, the Tmax is the time from dosing to the highest level. One may read the solubility as the dissolved amount per volume that the medium holds. Lower therefore signals a poorly soluble substance.

For the molecule `O=C(c1cc(-c2cc3c(cc2C(=O)N2Cc4ccccc4C[C@H]2CN2CCOCC2)OCO3)n2c1CCCC2)N(c1ccccc1)c1ccc(O)cc1` [Drug from Example 1, N-(4-hydroxyphenyl)-3-{6-[((3S)-3-(4-morpholinylmethyl)-3,4-dihydro-2(1H)-isoquinolinyl)carbonyl]-1,3-benzodioxol-5-yl}-N-phenyl-5,6,7,8-tetrahydro-1-indolizine carboxamide], in data set [1], the “in vivo caspase activation factor” value was found to be 29.3. For the same molecule, the Cmax in data set [2] (Drug from Example 1 administered 3 mg/kg p.o., lipid formulation (ethanol/PEG 300/water 10/40/50)) was 295 ng/mL; in data set [2] (setting [6]) it was 5070 ng/mL; in data set [2] (setting [7]), 8580 ng/mL; in data set [2] (setting [8]), 25900 ng/mL. Further, the AUC(0-t) was determined as 225 ng·h/mL in data set [2] (setting [5]), 20400 ng·h/mL in data set [2] (setting [6]), 24200 ng·h/mL in data set [2] (setting [7]) and 148000 ng·h/mL in data set [2] (setting [8]). For the same molecule, the Tmax in data set [2] (setting [5]) turned out to be 15 min; in data set [2] (setting [6]), 120 min; in data set [2] (setting [7]), 60 min; in data set [2] (setting [8]) it was 30 min. The “Solubility at 10 μM” value in data set [3] (10 μM) is reported as “Insoluble”. Moreover, the “Solubility at 20 μM” value in data set [3] (20 μM) is “Insoluble”. The “Solubility at 50 μM” value in data set [3] (50 μM) is given as “Insoluble”. In addition, in data set [3] (100 μM), the “Solubility at 100 μM” value was “Insoluble”. The solubility in data set [4] is 40 µg/mL and 56.2 µM.
